Test results published in patent publication US20190133968A1, “Applications of benzophenones in preparation of drug” (SHANXI MEDICAL UNIVERSITY, priority 2016, published 2019).

System: Escherichia coli ATCC25922 standard strain
Assay: urinary and renal bacterial culture of acute pyelonephritis rats
Assay type: in vivo, SD rats
Conditions: gavage, 10 days; for Renal bacterial culture score: mean score, scale 1-4 of Table 10 (colony number <10, >10, >100, >1000); for Urinary bacterial A value (OD600 nm): urine culture
Experimental: Ninety male SD rats having a weight of 180-220 g are selected, wherein: ten rats are selected as a sham-operated group (only being processed with ligation, without injecting with Escherichia coli), and the remaining rats are injected with Escherichia coli ATCC25922 standard strain having a concentration of 10^8/ml according to the method (disclosed in the Chinese Journal of Laboratory Animal Science, 1998, 8(1): pages 31-34) for preparing the acute pyelonephritis model rats.
After three days, urine of the rats is collected for bacterial culture, and the growth situation of the bacteria is observed. If the result is positive, the model rats are successively established; the unqualified rats are excluded, and the operation is made again for complementing the rats. The successively established model rats are randomly divided into the model group, the norfloxacin group (66.7 mg/kg), the LM49 solid dispersion low-dose group (with the drug concentration of 3 mg/kg), the LM49 solid dispersion medium-dose group (with the drug concentration of 9 mg/kg), the LM49 solid dispersion high-dose group (with the drug concentration of 27 mg/kg), the A8 solid dispersion low-dose group (with the drug concentration of 3 mg/kg), the A8 solid dispersion medium-dose group (with the drug concentration of 9 mg/kg), and the A8 solid dispersion high-dose group (with the drug concentration of 27 mg/kg).
The rats of the sham-operated group and the model group are administrated with the normal saline of same volume by gavage, and the rats of the other groups are respectively administrated with the drugs of the corresponding dose, once a day for consecutive ten days.
After finishing administration, urine of the rats of all groups is collected (for observing the bacterial growth situation). The abdominal aorta blood of the rats is drawn (for measuring the blood routine, CD4/CD8, urine creatinine and serum creatinine in the serum; and for measuring contents of IL-1α, IL-1β, IL-6, IL-10 and MCP-1 in the serum with the ELISA method). Two kidneys of each rat are cut (wherein a part is homogenated for bacterial culture, and the other part is used for observing the pathomorphology change).

Structure (SMILES)	Renal bacterial culture score (high-dose 27 mg/kg)	Urinary bacterial A value (OD600 nm) (high-dose 27 mg/kg)	Renal bacterial culture score (low-dose 3 mg/kg)	Urinary bacterial A value (OD600 nm) (low-dose 3 mg/kg)	Renal bacterial culture score (medium-dose 9 mg/kg)	Urinary bacterial A value (OD600 nm) (medium-dose 9 mg/kg)
O=C(c1cc(OC(=O)N2CCOCC2)c(OC(=O)N2CCOCC2)cc1Cl)c1cc(Cl)ccc1OC(=O)N1CCOCC1 [A8, 4,5,2′-tris(4-morpholinemethanoyl)-2,5′-dichlorobenzophenone]	1.5 ± 0.33^ΔΔ	0.274 ± 0.113^ΔΔ	3.6 ± 0.57^	0.332 ± 0.131^	2.6 ± 0.23^Δ	0.304 ± 0.125^Δ
O=C(c1cc(Br)ccc1O)c1cc(O)c(O)cc1Br [LM49, 2,5′-dibromo-4,5,2′-trihydroxyldiphenylmethanone]	1.9 ± 0.57^ΔΔ	0.304 ± 0.109^Δ	3.9 ± 0.32^	0.353 ± 0.128^	3.4 ± 0.52^Δ	0.331 ± 0.100^Δ
